Assays:
Echinochloa crusgalli = test: Test of herbicidal activities (greenhouse pot method); assay type: in vivo; conditions: Echinochloa crus-galli, 360 h; single dose 300 g ai./h, treated before/after germination, 15 days later, greenhouse pot; read-out: Herbicidal activity Echinochloa crusgalli (inhibition level)
Procedure, shortened: (§1)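 Weeds were sown in soil-filled pots at 15–30 °C and treated once by spray tower at 300 g ai./h, either before emergence or post-emergence at the 2-leaf stage, in three replicates with an untreated control. Symptoms were scored 15 days later into five classes from A (≥90%) to E (<50%).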

Digiatria sanguinalis = test: as above; assay type: in vivo; conditions: 360 h; single dose 300 g ai./h, treated before/after germination, 15 days later, greenhouse pot; read-out: Herbicidal activity Digiatria sanguinalis (inhibition level)
Procedure, shortened: as §1

Setaria viridis = test: as above; assay type: in vivo; conditions: Setaria viridis, 360 h; single dose 300 g ai./h, treated before/after germination, 15 days later, greenhouse pot; read-out: Herbicidal activity Setaria viridis (inhibition level)
Procedure, shortened: as §1

Brassica juncea = test: as above; assay type: in vivo; conditions: Brassica juncea, 360 h; single dose 300 g ai./h, treated before/after germination, 15 days later, greenhouse pot; read-out: Herbicidal activity Brassica juncea (inhibition level)
Procedure, shortened: as §1

Chenopodium album = test: as above; assay type: in vivo; conditions: Chenopodium album, 360 h; single dose 300 g ai./h, treated before/after germination, 15 days later, greenhouse pot; read-out: Herbicidal activity Chenopodium album (inhibition level)
Procedure, shortened: as §1

Amaranthus retroflexus = test: as above; assay type: in vivo; conditions: Amaranthus retroflexus, 360 h; single dose 300 g ai./h, treated before/after germination, 15 days later, greenhouse pot; read-out: Herbicidal activity Amaranthus retroflexus (inhibition level)
Procedure, shortened: as §1

SMILES: Cc1nn(-c2cc3nc([S+]([O-])Cc4ccccc4)sc3cc2F)c(=O)n1C (stereo not shown) [Compound 101, 1-(2-(benzylsulfinyl)-6-fluorobenzo[d]thiazol-5-yl)-3,4-dimethyl-1H-1,2,4-triazol-5(4H)-one]
- melting point: 162 to 164 °C
- inhibition at 300 g/ha (Echinochloa crusgalli): 80 to 90%
- inhibition at 300 g/ha (Digiatria sanguinalis): 60 to 80%
- inhibition at 300 g/ha (Setaria viridis): 60 to 80%
- inhibition at 300 g/ha (Brassica juncea): 50 to 60%
- inhibition at 300 g/ha (Chenopodium album): 80 to 90%
- inhibition at 300 g/ha (Amaranthus retroflexus): 60 to 80%
